Read-outs that look alike come from different tables or passages of the source.
What was measured:
[1] = tested on: histamine-induced death; test: Protective effect on histamine-induced death; format: in vivo, guinea pig (Hartley-strain male); settings: oral 1 mg/kg, 2 h before 1.25 mg/kg i.v. histamine hydrochloride, guinea pig; for responders at 1 mg/kg: Cavia porcellus, read-out: Percent inhibition of histamine-induced death at a dose of 1 mg/kg, P.D. (%)
Protocol: Hartley-strain male guinea pigs weighing 200 to 250 g were employed. After the test animals were starved for 5 hours, the test substance was orally administered at a dose of 1 mg/kg. 2 hours later after administration of the test substance, 1.25 mg/kg of histamine hydrochloride was intravenously administered to induce histamine shock. The potency of the test substance was judged by the percent inhibition of death induced by histamine.

[2] = tested on: thiopental-induced anesthesia; format: in vivo, mouse (ddY-strain male); settings: 60 mg/10 ml/kg, control 1.00
Protocol: ddY-strain male mice of 5 weeks of age were employed. Thiopental sodium was dissolved in physiological saline, and the test substance was prepared with a suspending agent of 0.5% Tween 80 (trade name, produced by Atlas Powder Co.; polyoxyethylene (20) sorbitan mono-oleate) and 1% gum tragacanth in the ratio of 1:2.5. The test animals were starved for 4 hours, 60 mg/10 ml/kg of the test substance was intraperitoneally administered (or orally administered), and then 20 minutes later (1 hour later in the case of oral administration), 30 mg/[…] of thiopental sodium was intravenously administered. The time immediately from intravenous administration to the righting reflex was measured, and this was defined as the anesthetic time. The formula for determining the anesthesia elongation is shown below. [formula]

[3] = toxicity test in mice by oral administration; settings: in vivo, male mouse
Excerpt: Also, the compounds of the present invention are extremely safe, and can be used continuously for a long term as pharmaceuticals, and were confirmed to have good tolerability in the toxicity test in mice by oral administration.

[4] = cited from earlier work
[5] = p.o., 1 hour before i.v. thiopental sodium
[6] = i.p., 20 minutes before i.v. thiopental sodium

CC(=O)CCCN1CCC(OC(c2ccc(Cl)cc2)c2ccccn2)CC1.O=C(O)/C=C/C(=O)O (centres unmarked) [Compound P, 5-[4-[(4-Chlorophenyl)-2-pyridylmethoxy]-1-piperidyl]-2-pentanone fumaric acid salt]
responders at 1 mg/kg [1]: 100%
The ratio of the elongation on the anesthetic time induced by thiopental [2, 5]: 0.86

Clc1ccc(C(OC2CCN(CCSc3nc4ccccc4s3)CC2)c2ccccn2)cc1 (centres unmarked) [Compound E, 2-[2-[4-[(4-Chlorophenyl)-2-pyridylmethoxy]-1-piperidyl]-ethylthio]benzothiazole]
responders at 1 mg/kg [1]: 60%
The ratio of the elongation on the anesthetic time induced by thiopental [2, 6]: 1.02

Clc1ccc(C(OC2CCN(CCSc3nc4ccccc4o3)CC2)c2ccccn2)cc1.O=C(O)/C=C/C(=O)O (centres unmarked) [Compound B, 2-[2-[4-[(4-Chlorophenyl)-2-pyridylmethoxy]-1-piperidyl]-ethylthio]benzoxazole fumarate]
LD50 [3]: 1700 mg/kg
The ratio of the elongation on the anesthetic time induced by thiopental [2, 5]: 1.21

O=c1[nH]c2ccccc2n1CCCN1CCN(C(c2ccccc2)c2ccccc2)CC1 [Oxatomide, reference compound]
responders at 1 mg/kg [1]: 100%
The ratio of the elongation on the anesthetic time induced by thiopental [2, 5]: 4.56

CC(C)(C)c1ccc(C(O)CCCN2CCC(C(O)(c3ccccc3)c3ccccc3)CC2)cc1 (centres unmarked) [Terfenadine, reference compound]
sedative side-effect ([4]; in vivo): little sedative side-effect
responders at 1 mg/kg [1]: 50%

c1ccc2c(c1)Sc1ccccc1N2CC1CN2CCC1CC2 (centres unmarked) [Meqiutazine, reference compound]
responders at 1 mg/kg [1]: 80%

O=C(CCCN1CCC(OC(c2ccc(Cl)cc2)c2ccccn2)CC1)c1ccccc1 (centres unmarked) [Compound Q, 4-[(4-Chlorophenyl)-2-pyridylmethoxy]-1-(3-benzoylpropyl)piperidine]
responders at 1 mg/kg [1]: 100%
The ratio of the elongation on the anesthetic time induced by thiopental [2, 5]: 1.25

NC(=O)CCCN1CCC(OC(c2ccc(Cl)cc2)c2ccccn2)CC1.O=C(O)/C=C\C(=O)O (centres unmarked) [Compound M, 4-[4-[(4-Chlorophenyl)-2-pyridylmethoxy]-1-piperidyl]-butanamide maleate]
responders at 1 mg/kg [1]: 100%
The ratio of the elongation on the anesthetic time induced by thiopental [2, 5]: 0.75

Clc1ccc(C(OC2CCN(CCCSc3nc4ccccc4s3)CC2)c2ccccn2)cc1 (centres unmarked) [Compound F, 2-[3-[4-[(4-Chlorophenyl)-2-pyridylmethoxy]-1-piperidyl]-propylthio]benzothiazole]
responders at 1 mg/kg [1]: 80%
The ratio of the elongation on the anesthetic time induced by thiopental [2, 6]: 1.73

CN1CCCC(n2nc(Cc3ccc(Cl)cc3)c3ccccc3c2=O)CC1 (centres unmarked) [Azelastine hydrochloric acid, reference compound]
responders at 1 mg/kg [1]: 100%

O=C(O)CCCN1CCC(OC(c2ccc(Cl)cc2)c2ccccn2)CC1 (centres unmarked) [Compound L, 4-[4-[(4-Chlorophenyl)-2-pyridylmethoxy]-1-piperidyl]-butanoic acid]
responders at 1 mg/kg [1]: 100%

CCOC(=O)CCCN1CCC(OC(c2ccc(Cl)cc2)c2ccccn2)CC1 (centres unmarked) [Compound J, Ethyl 4-[4-[(4-chlorophenyl)-2-pyridylmethoxy]-1-piperidyl]butanoate]
responders at 1 mg/kg [1]: 100%
The ratio of the elongation on the anesthetic time induced by thiopental [2, 6]: 1.04

Clc1ccc(C(OC2CCN(CCNc3nc4ccccc4s3)CC2)c2ccccn2)cc1 (centres unmarked) [Compound H, 2-[2-[4-[(4-Chlorophenyl)-2-pyridylmethoxy]-1-piperidyl]-ethylamino]benzothiazole]
responders at 1 mg/kg [1]: 100%
The ratio of the elongation on the anesthetic time induced by thiopental [2, 6]: 1.05

CCOC(=O)CCCN1CCC(OC(c2ccccc2)c2ccccc2)CC1.O=C(O)/C=C/C(=O)O [Compound N, Ethyl 4-(4-diphenylmethoxy-1-piperidyl)butanoate fumaric acid salt]
responders at 1 mg/kg [1]: 80%
The ratio of the elongation on the anesthetic time induced by thiopental [2, 5]: 0.90

c1ccc(C(c2ccccc2)N2CCN(CCCSc3nc4ccccc4s3)CC2)cc1 [Compound I, 2-[3-[4-(diphenylmethyl)-1-piperadinyl]propylthio]benzothiazole dimaleate]
responders at 1 mg/kg [1]: 80%
The ratio of the elongation on the anesthetic time induced by thiopental [2, 6]: 1.25

Chlorophenylamine maleate [reference compound]
Percent inhibition of histamine-induced death at a dose of 1 mg/kg, P.D. (%) [1]: 100%
The ratio of the elongation on the anesthetic time induced by thiopental [2, 6]: 1.81

Clc1ccc(C(OC2CCN(CCCSc3nc4ccccc4o3)CC2)c2ccccn2)cc1 (centres unmarked) [Compound C]
responders at 1 mg/kg [1]: 100%
The ratio of the elongation on the anesthetic time induced by thiopental [2, 6]: 0.91

COc1ccc(CCN2CCC(Nc3nc4ccccc4n3Cc3ccc(F)cc3)CC2)cc1 [Astemizole, reference compound]
sedative side-effect ([4]; reported for control drugs): little sedative side-effect
responders at 1 mg/kg [1]: 100%

Clc1ccc(C(OC2CCN(CCSc3nc4ccccc4o3)CC2)c2ccccn2)cc1 (centres unmarked) [Compound A, 2-[2-[4-[(4-Chlorophenyl)-2-pyridylmethoxy]-1-piperidyl]-ethylthio]benzoxazole]
responders at 1 mg/kg [1]: 100%
The ratio of the elongation on the anesthetic time induced by thiopental [2, 6]: 0.89

CCOc1ccc2nc(SCCCN3CCC(OC(c4ccc(Cl)cc4)c4ccccn4)CC3)sc2c1.O=C(O)/C=C/C(=O)O (centres unmarked) [Compound G, 2-[3-[4-[(4-chlorophenyl)-2-pyridylmethoxy]-1-piperidyl]propylthio]-6-ethoxybenzothiazole fumarate]
responders at 1 mg/kg [1]: 100%
The ratio of the elongation on the anesthetic time induced by thiopental [2, 5]: 0.92

CCOC(=O)CCCN1CCC(OC(c2ccc(Cl)cc2)c2ccccn2)CC1.Cc1ccc(S(=O)(=O)O)cc1 (centres unmarked) [Compound K, Ethyl 4-[4-[(4-chlorophenyl)-2-pyridylmethoxy]-1-piperidyl]butanoate p-toluenesulfonate]
LD50 [3]: 2200 mg/kg
The ratio of the elongation on the anesthetic time induced by thiopental [2, 5]: 1.19

Clc1ccc(C(OC2CCN(CCNc3nc4ccccc4o3)CC2)c2ccccn2)cc1.O=C(O)/C=C/C(=O)O (centres unmarked) [Compound D, 2-[2-[4-[(4-Chlorophenyl)-2-pyridylmethoxy]-1-piperidyl]-ethylamino]benzoxazole fumaric acid salt]
LD50 [3]: 740 mg/kg
responders at 1 mg/kg [1]: 100%
The ratio of the elongation on the anesthetic time induced by thiopental [2, 5]: 0.88

CCOC(=O)C=CCN1CCC(OC(c2ccc(Cl)cc2)c2ccccn2)CC1 (centres unmarked) [Compound O, Ethyl 4-[4-[(4-chlorophenyl)-2-pyridylmethoxy]-1-piperidyl]-2-butenoate]
responders at 1 mg/kg [1]: 100%
The ratio of the elongation on the anesthetic time induced by thiopental [2, 5]: 1.14

Source: US4929618A, “Piperdine and piperazine derivatives, and antihistaminic pharmaceutical compositions containing the same” (priority 1988, dated 1990)
